Results from patent US20230287316A1, “INTER-ORGAN PLATFORM WITH TISSUE-SPECIFIC NICHES FOR A MICROPHYSIOLOGICAL SYSTEM ON A CHIP” (THE TRUSTEES OF COLUMBIA UNIVERSITY IN THE CITY OF NEW YORK, priority 2020, published 2023).

Key:
[1] = system: tumors engineered from non-metastatic OS cells; assay: Linsitinib in bioengineered tumors from non-metastatic OS cells; type: cell-based, human; settings: 12 µM, for 3 weeks
Protocol: (§1) We tested the drug Linsitinib—a potent tyrosine kinase inhibitor targeting the IGF-1 receptor (IGF-1R) —in metastatic and non-metastatic OS models (FIG. 17C). The drug was administered (12 µM, for 3 weeks), as per an ongoing Phase II Eurosarc trial in patients with advanced Ewing sarcoma.

[2] = system: tumors from metastatic cells; assay: Linsitinib in bioengineered tumors from metastatic OS cells; type: cell-based, human; settings: 12 µM, for 3 weeks
Protocol: as §1

[3] = system: non-metastatic TE-ES (RD-ES) bone tumor; assay: Linsitinib on non-metastatic engineered ES bone tumors (TE-ES) cultured in isolation; type: cell-based, human
Source text: FIGS. 31A-E show aspects of the evaluation of the dose-dependent effects of doxorubicin and linsitinib on engineered non-metastatic and metastatic ES bone tumors. […] An MTT viability assay was used to determine drug toxicity, with luminescence generated by viable cells measured at the endpoint (10^4 cells per well, mean± s.e.m., n = 3). […] Tumors are outlined by white dashes and validated using corresponding H&E stains of the identical loci. All scale bars: 250 µm.
FIGS. 32A-D show aspects of responses of human engineered bone ES tumors and cardiac tissues to linsitinib in isolated platform chambers. […] Luminescence as a function of cancer cell number and viability was measured (mean± s.e.m., n = 6 for day 3, and n = 3 for day 7 and 21).
The effects of linsitinib were studied in an experiment performed according to the 3-week treatment cycle used in the clinical trial (3 days of drug administration followed by 4 days without the drug, in 3 cycles), with luminescence signal serving as an indicator of cancer cell viability within the TE-ES.
Supernatants were collected from each individual sample across the duration of the drug treatments and were analyzed for osteoblast function (OCN, OPN) and for cytotoxicity (LDH) (mean± s.e.m., n = 3).
Two weeks following the initiation of osteogenic differentiation, aggregates of ES tumor cells were prepared as described previously, using 0.3 × 10^6 cells per aggregate. After 1 week of culture, corresponding to the end of bone tissue culture (3 weeks), the primary ES cell aggregates were placed into the engineered bone constructs (3 aggregates per construct, placed apart of each other). Tumor models were established for two different types of primary ES cells: non-metastatic (RD-ES) and metastatic (SK-N-MC). Tissue engineered RD-ES and SK-N-MC tumors were cultured in the RPMI and EMEM media, respectively, supplemented with 10% FBS and 1% penicillin/streptomycin. Bone constructs cultured without tumor cell aggregates (TE-bone) in RPMI and EMEM media were used as controls.
To assess apoptosis, paraffin embedded tissue sections were first deparaffinized with CitriSolv, rehydrated with graded series of ethanol washes, and then stained with a Click-iT® TUNEL Alexa Fluor® imaging assay (Thermo Fisher Scientific). Following nuclear counterstaining with DAPI (Life Technologies), the TUNEL labelled slides were imaged with an IX81 inverted fluorescent microscope (Olympus) and a Pike F032B camera (ALLIED Vision), using NIS-Elements AR software, and processed using ImageJ (NIH). Four representative images per condition were then analyzed using the previously developed automatic TUNEL cell counter plugin for ImageJ to quantify DAPI^+ cells and TUNEL^+ cells.
(§2) Cell viability was analyzed using a previously established protocol.^59 Cancer cell viability was measured for GFP-Luciferase labelled cancer cells using ONE-Glo luciferase substrate that was prepared according to manufacturer’s protocol (Promega). Samples were collected following 3, 7, and 21 days cycles of linsitinib treatment. Where noted, longitudinal cell viability was also assessed using luminescence, though at the cost of signal strength. Briefly, in vivo grade VivoGlo™ Luciferin (Promega) was made at a 200x stock concentration (30 mg/ml) in water, added to sample culture media at a 1:200 dilution, and scanned using a spectrophotometer (Biotek).

[4] = system: non-metastatic TE-ES bone tumor; assay: Linsitinib on non-metastatic TE-ES in 1:1 mixed media; type: cell-based, human; settings: 12 µM regimen
Protocol: as §2, with “(Biotek). Some of the IC50 values were determined using cell viability data generated using an MTT assay (RealTime-Glo™ MT Cell Viability Assay, Promega) that were analyzed according to manufacturer’s protocol.” for “(Biotek).”
(§3) Osteocalcin (OCN), osteopontin (OPN), and lactic acid dehydrogenase (LDH) secreted levels were all measured using a similar approach. Supernatants were isolated from controls and drug treated TE-ES and equal amounts were used in each assay according to the manufacturer’s instructions. For OCN a Human Osteocalcin Quantikine^R ELISA (R&D Systems) was used, while for OPN it was a Human Osteopontin Quantikine^R ELISA (R&D Systems). LDH secretion was determined using a Lactate Dehydrogenase Assay Kit (Colorimetric; Abcam).

[5] = system: non-metastatic ES bone tumor tissues; assay: Linsitinib on non-metastatic ES bone tumor in the integrated platform with microfluidic perfusion; type: cell-based, human; settings: 12 µM
Protocol: as §2, with “(Biotek). Some of the IC50 values were determined using cell viability data generated using an MTT assay (RealTime-Glo™ MT Cell Viability Assay, Promega) that were analyzed according to manufacturer’s protocol.” for “(Biotek).”
as §3

[6] = cited from earlier work
[7] = 12 µM, 3-week regimen, supernatants
[8] = clinical trials of other types of cancer

In the case of `C[C@]1(O)C[C@@H](c2nc(-c3ccc4ccc(-c5ccccc5)nc4c3)c3c(N)nccn32)C1` [linsitinib], the tumor viability [1] is reported as “significant viability reduction”, the tumor viability [2] is reported as “no effect” and the “response to linsitinib concentration (luminescence viability)” value ([3]; 0, 1.2, 12, and 120 µM for 72 hours) is reported as “dose-dependent response”. The “apoptosis (TUNEL assay)” value ([3]; 12 µM) was “increases in apoptosis”, the “cell viability (luminescence)” value ([3]; 12 µM) was “significant reduction in cell viability” and the “LDH secretion (cytotoxicity)” value [3, 7] was “spiked in both models immediately following drug administration, but significantly more so”. The Osteocalcin secretion [3, 7] was “decreased”, the “cancer cell population (luminescence)” value ([3]; 12 µM, 21-day clinical treatment regimen) was “initial decrease in cancer cell population in the non-metastatic model and this population appeared unable to continue expanding” and the “drug response (luminescence)” value ([3]; 12 µM, after 3 days) was “significant drug response”. The osteopontin secretion ([3]; 12 µM, throughout the 21 days) was “significantly increased”, the “drug response of tumors derived from sorted linsitinib-resistant cells” value ([3]; second 21-day 12 µM treatment regimen) was “significant initial drug response” and the OCN secretion [4] was “increased only slightly”. The “cancer cell population level (luminescence)” value [4] was ~ 30 % of their starting population, the “drug response (luminescence), immediate exposure” value ([5]; 3 days, directly into the TE-ES tissue chamber) was “fast response to the drug” and the “drug response (luminescence), diffused exposure” value ([5]; 3 days, introduced into the circulation) was “no response”. For the same compound, the “drug response (luminescence)” value ([5]; 3 days, linsitinib into the reservoir) was “insignificant drug response”, the “Secretion of LDH, vehicle vs linsitinib treated” value ([5]; 72 hours) was “no significant difference” and the “progression of ES in the clinical trial” value ([6]; Phase II trial, patients with refractory or relapsed ES) was “unable to stop progression of ES”. The Cmax ([6]; blood plasma, patients, read-out: Cmax clinical concentration) was 12 µM, the atrial fibrillation [6, 8] was 3.75 - 5% and the tachycardia [6, 8] was 3.75-5 % of patients. The half-life ([6]; known value) was “approximately 5 hours”.
